The values below come from patent US12280038B2, “L-pag derivatives for treatment of sleep disordered breathing (SDB)” (priority 2016, dated 2025).

Read-outs that look alike come from different tables or passages of the source.

Data set [1] relates to HO-2 null mice. The data set can be described thus: Breathing (apnea, hypoapnea) monitored by whole-body plethysmography in unsedated HO-2 null mice. Conditions: for ED50: Mus musculus. Format: in vivo.
Protocol: Experiments were approved by the Institutional Animal Care and Use Committee of the University of Chicago and were performed on age-matched C57/BL6 wild type and HO-2^−/− mice. At the end of the experiment, mice were euthanized by intra-cardiac injection (0.1 mL) of euthanasia solution (Beuthanasia-D Special, Schering-Plough).
Breathing was continuously monitored under room air from 10:00 AM to 4:00 PM by whole-body plethysmography (emka Technologies, Falls Church, VA) while ambient temperatures were maintained at 25±1° C. Breathing signals were collected and stored with a data acquisition system(emka Technologies, Falls Church, VA; or PowerLab 8/35, AD Instruments, Australia), and scored off-line with commercial software (RemLogic™, Natus). Apneas were scored when there was a complete pause of respiration for the duration of 3 or more breaths. Hypopneas were scored when there was a 30% reduction in tidal volume or signal amplitude, often with an abrupt return to hyperventilation breaths at the end of the event.
Data set [2] addresses T1, cystathionine-γ-lyase (CSE) (Mus musculus, UniProt Q8VCN5).
T1 construct: H2S production in an in vitro assay using mouse liver homogenates; from tissue; host or cells: mouse liver homogenate
The data set can be described thus: In vitro assay of H2S production in mouse liver homogenates (CSE). Format: biochemical. On the procedure:
(§1) FIGS. 10A-10B Effect of CSE inhibitor on H2S production. FIG. 10A depicts a dose-response of L-propargylglycine (L-PAG) on H2S production in an in vitro assay using mouse liver homogenates. FIG. 10B depicts the effect of L-PAG (30 μM) on H2S generation by CSE and CBS in mouse liver homogenates. Data are presented as mean±SEM from 4 independent experiments. **P<0.01; n.s., not significant.
(§2) The effect of pharmacological CSE blockade on restoration of stable breathing in HO-2 null mice was examined. L-propargylglycine (L-PAG) is an inhibitor of CSE. […] The inhibitory effects of L-PAG were selective to CSE because H2S synthesis by cystathionine-β-synthase was unaffected (FIG. 10 B).

The target in data set [3] is T2, cystathionine-β-synthase (Mus musculus, UniProt Q91WT9).
T2 construct: H2S generation by CSE and CBS in mouse liver homogenates; from tissue; host or cells: mouse liver homogenate
T2 sequence (Q91WT9 1-561): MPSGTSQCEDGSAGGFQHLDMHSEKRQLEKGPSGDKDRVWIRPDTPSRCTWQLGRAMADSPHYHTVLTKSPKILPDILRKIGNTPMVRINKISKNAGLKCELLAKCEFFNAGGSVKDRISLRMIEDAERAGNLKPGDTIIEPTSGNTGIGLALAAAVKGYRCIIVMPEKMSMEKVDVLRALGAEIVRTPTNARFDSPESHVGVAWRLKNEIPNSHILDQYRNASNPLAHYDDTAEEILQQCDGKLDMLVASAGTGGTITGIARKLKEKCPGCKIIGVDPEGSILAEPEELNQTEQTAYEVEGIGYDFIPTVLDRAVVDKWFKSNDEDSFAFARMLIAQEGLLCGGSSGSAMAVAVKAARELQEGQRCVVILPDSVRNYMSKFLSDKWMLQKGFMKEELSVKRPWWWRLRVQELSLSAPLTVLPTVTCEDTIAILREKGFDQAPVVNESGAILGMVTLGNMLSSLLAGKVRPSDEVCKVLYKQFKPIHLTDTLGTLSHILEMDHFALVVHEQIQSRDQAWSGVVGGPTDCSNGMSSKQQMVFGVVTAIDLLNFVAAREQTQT
In words: In vitro assay of H2S production in mouse liver homogenates (CBS). The settings on record: L-PAG 30 μM. The format is biochemical. On the procedure:
as §1, §2

Data set [4] in a line: in vivo. On the procedure:
Comparisons of L-PAG plasma levels with (a) dose-response parameters for L-PAG pharmacologic activity and (b) the kinetics of reversal of this pharmacologic activity, support the conclusion that a threshold plasma drug level of approximately 12 to 15 μg/ml is necessary to sustain anti-apnea action. This threshold plasma drug level is consistent with both (a) the minimal anti-apnea activity of the 10 mg/kg dose of L-PAG and (b) the kinetics of the reversal of anti-apnea activity with time seen at L-PAG doses of 30 mg/kg or higher.

Data set [5] has as its system carotid body. In words: Ex vivo carotid body sensory nerve response to hypoxia. Conditions: 30 mg/kg, HO-2 null mice. On the procedure: Sensory nerve activity was recorded from ex vivo carotid bodies harvested from anesthetized mice. Briefly, the carotid sinus nerve was treated with collagenase, and several nerve bundles were isolated. Action potentials from one of the nerve bundles were recorded using a suction electrode (˜20-μm-diameter tip). […] Action potentials of similar height, duration, and shape (“single” unit) were selected using Spike histogram software (LabChart 7 Pro) for analysis of the sensory nerve activity. To obtain a stable baseline sensory nerve activity, carotid bodies were first superfused for 1 hour with normoxia-equilibrated medium. Subsequently, baseline sensory nerve activity under normoxia was recorded for 5 min. Sensory nerve responses to hypoxia were monitored for 3 min. The PO2 in the medium was determined by a blood gas analyzer (ABL 5). Hypoxic response was measured as the difference between the sensory nerve activity under baseline and during hypoxia (Δimp/s).

In data set [6] the test system is HO-2 null mice. Conditions: any of the doses tested. On the procedure:
HO-2 null mice were treated with increasing doses of L-PAG via the intraperitoneal route, and breathing was monitored continuously for 6 hours. […] The anti-apneic effects of L-PAG were further analyzed at 30 mg/kg.

T1 sequence (Q8VCN5 whole entry): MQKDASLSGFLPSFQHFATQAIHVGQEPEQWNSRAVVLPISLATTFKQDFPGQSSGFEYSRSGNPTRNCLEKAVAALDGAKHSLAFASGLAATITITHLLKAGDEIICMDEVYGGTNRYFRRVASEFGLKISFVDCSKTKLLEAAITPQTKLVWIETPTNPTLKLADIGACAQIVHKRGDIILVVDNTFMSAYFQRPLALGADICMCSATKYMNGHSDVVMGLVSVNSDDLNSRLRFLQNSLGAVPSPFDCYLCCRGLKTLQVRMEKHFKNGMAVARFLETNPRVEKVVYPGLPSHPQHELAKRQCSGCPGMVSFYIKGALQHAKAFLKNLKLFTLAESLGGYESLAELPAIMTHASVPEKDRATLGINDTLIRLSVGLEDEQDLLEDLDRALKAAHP

Take `C#CC[C@H](N)C(=O)O` [L-PAG, L-propargylglycine]: the “anti-apnea activity at 10 mg/kg dose” value in data set [1] (10 mg/kg) is listed as “minimal”. Also, in data set [1] (30 mg/kg intraperitoneal), the hypoapnea index result is “reduced by L-PAG and this effect persisted even after 24 hours”; the “occurrence of both obstructive and central apnea” value is “markedly reduced”; the “time after administration at which anti-apneic effects were seen” value is roughly 2 h; the “time after which apnea returned to pre-injection values” worked out at 24 h. Besides, the ED50 in data set [1] (ip, intraperitoneal route, breathing monitored 6 hours, HO-2 null mice, read-out: ED50 for reducing number of apneas and restoring stable breathing) is 30 mg/kg. Moreover, in data set [1] (systemic administration, HO2-KO mice, FIG. 11, read-out: ED50 for inhibiting SDB (comparative dose-response)), the 50% effective dose (ED50) was roughly 30 mg/kg. For the same compound, in data set [1] (oral 30 mg/kg, compared with intraperitoneal), the “reduction of number of apneas and hypoapnea index after oral administration” value is “equally effective”. Also, in data set [2], the “CSE-derived H2S” value is on record as “inhibited”. In addition, the “H2S synthesis by cystathionine-β-synthase” value in data set [3] is on record as “unaffected”. Besides, in data set [4], the bioavailability came to 100% and the “plasma clearance profiles, oral versus i.p.” value is “essentially identical”. In data set [4] (mouse), the “threshold plasma drug level necessary to sustain anti-apnea action” value is 12 to 15 µg/mL. For the same compound, the “carotid body sensitivity to hypoxia” value in data set [5] is “markedly reduced”. Moreover, the mortality entry in data set [6] is “no mortality”.

The term ED50 denotes the midpoint of the dose-response relation. By bioavailability is commonly meant the share of a dose that reaches the circulation, judged against a reference dose that is usually intravenous.
